{
  "source": "paper PMC9226124",
  "about": "“Macrocycle-stabilization of its interaction with 14-3-3 increases plasma membrane localization and activity of CFTR” (Nature Communications, 2022)",
  "key": {"[1]": {"biological_target": "T1, FITC-labeled CFTRpS753pS768 peptide (no 14-3-3) (Homo sapiens, UniProt P13569)", "T1 construct": "made in house; host or cells: synthetic peptide", "T1 sequence (P13569 747-774 limits assumed)": "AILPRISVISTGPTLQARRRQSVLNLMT", "test": "Dose-response FP control assay in the absence of 14-3-3", "assay_type": "binding", "conditions": "No 14-3-3", "protocol": "(§1) The 14-3-3β concentration used for the FP screening assay was 10 μM (dashed line). c HTS FP assay of the Cyclenium library. The samples contain 100 nM of FITC-CFTR_pS753pS768 peptide, 10 μM 14-3-3β, and 50 μM compound. FC-A (100 µM) was added as a positive control and DMSO as the negative control. Hit compounds are defined as a polarization increase which is higher than 20% of the response of FC-A. Red squares are compounds that appeared positive in the negative control without 14-3-3. […] Background polarization was subtracted from all values, n = 3 technical replicates. Compounds selected for further analysis are indicated with an asterisk. e Polarization in the absence of 14-3-3. […] Source data are provided as a Source Data file.\n(§2) The FITC-labeled peptides were dissolved in FP buffer (10 mM HEPES pH 7.4, 150 mM NaCl, 0.1% Tween20, 1 mg/mL BSA) to a final concentration of 100 nM or 10 nM. For the dose-response assays, a 14-3-3β concentration of 10 μM was used while titrating the compounds in a two-times dilution series and, for the other assays, a dilution series of 14-3-3β was made with constant concentration of compound. The dilution series were made in 384 Corning Black Round Bottom well plates and their polarization was measured with a Tecan Infinite F500 plate reader (ex. = 485 nm, em. = 535 nm). The method of fitting of the curves was: “log(agonist) vs. response – Variable slope (four parameters)” from GraphPad Prism. The equation is Y = Bottom + (Top-Bottom)/(1 + 10^((LogEC50-X)*HillSlope))."}, "[2]": {"biological_target": "T2, 14-3-3β/CFTRpS753pS768 complex (Homo sapiens, UniProt P13569+P31946)", "T2 construct": "His6 (cleaved yes); made in house; peptide synthetic", "T2 sequence (P31946 whole entry)": "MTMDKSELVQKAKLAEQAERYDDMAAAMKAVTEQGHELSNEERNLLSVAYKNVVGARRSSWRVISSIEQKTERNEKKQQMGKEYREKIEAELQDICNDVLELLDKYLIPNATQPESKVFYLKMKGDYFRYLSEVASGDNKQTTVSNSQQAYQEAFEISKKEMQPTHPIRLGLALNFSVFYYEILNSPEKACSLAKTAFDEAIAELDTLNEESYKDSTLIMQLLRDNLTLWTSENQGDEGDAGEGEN", "test": "Dose-response fluorescence polarization (FP) assay, compound titration", "assay_type": "binding", "conditions": "for EC50: 14-3-3β 10 μM, labeled CFTRpS753pS768 100 nM; for FP signal: With 14-3-3", "protocol": "as §1, with “file. […]” for “file.”\nas §2"}},
  "data": [
    {"smiles": "NCCCCC1NCc2ccccc2Sc2ccccc2CNC(=O)C(Cc2cccc(Cl)c2)NC(=O)C(Cc2ccc(O)cc2)NC1=O", "note": "(stereo not drawn) [CY007288]", "values": [
      {"measurement": "FP signal", "setting": "[1]; compound 476.8 pM", "result": 6},
      {"measurement": "FP signal", "setting": "[1]; compound 953.7 pM", "result": 6},
      {"measurement": "FP signal", "setting": "[1]; compound 1.90735e-9 M", "result": 5},
      {"measurement": "FP signal", "setting": "[1]; compound 3.8147e-9 M", "result": 4},
      {"measurement": "FP signal", "setting": "[1]; compound 7.6294e-9 M", "result": 7},
      {"measurement": "FP signal", "setting": "[1]; compound 1.52588e-8 M", "result": 6},
      {"measurement": "FP signal", "setting": "[1]; compound 3.05176e-8 M", "result": 5},
      {"measurement": "FP signal", "setting": "[1]; compound 6.10352e-8 M", "result": 4},
      {"measurement": "FP signal", "setting": "[1]; compound 1.2207e-7 M", "result": 4},
      {"measurement": "FP signal", "setting": "[1]; compound 2.44141e-7 M", "result": 5},
      {"measurement": "FP signal", "setting": "[1]; compound 4.88281e-7 M", "result": 6},
      {"measurement": "FP signal", "setting": "[1]; compound 9.76563e-7 M", "result": 6},
      {"measurement": "FP signal", "setting": "[1]; compound 1.95313e-6 M", "result": 5},
      {"measurement": "FP signal", "setting": "[1]; compound 3.90625e-6 M", "result": 8},
      {"measurement": "FP signal", "setting": "[1]; compound 7.8125e-6 M", "result": 9},
      {"measurement": "FP signal", "setting": "[1]; compound 1.5625e-5 M", "result": 16},
      {"measurement": "FP signal", "setting": "[1]; compound 3.125e-5 M", "result": 30},
      {"measurement": "FP signal", "setting": "[1]; compound 6.25e-5 M", "result": 55},
      {"measurement": "FP signal", "setting": "[1]; compound 0.000125 M", "result": 97},
      {"measurement": "FP signal", "setting": "[1]; compound 0.00025 M", "result": 149},
      {"measurement": "FP signal", "setting": "[1]; compound 0.0005 M", "result": 194},
      {"measurement": "FP signal", "setting": "[1]; compound 0.001 M", "result": 224},
      {"measurement": "EC50", "setting": "[2]", "result": "False positive"},
      {"measurement": "FP signal", "setting": "[2]; compound 476.8 pM", "result": 6},
      {"measurement": "FP signal", "setting": "[2]; compound 953.7 pM", "result": 6},
      {"measurement": "FP signal", "setting": "[2]; compound 1.90735e-9 M", "result": 5},
      {"measurement": "FP signal", "setting": "[2]; compound 3.8147e-9 M", "result": 4},
      {"measurement": "FP signal", "setting": "[2]; compound 7.6294e-9 M", "result": 7},
      {"measurement": "FP signal", "setting": "[2]; compound 1.52588e-8 M", "result": 6},
      {"measurement": "FP signal", "setting": "[2]; compound 3.05176e-8 M", "result": 5},
      {"measurement": "FP signal", "setting": "[2]; compound 6.10352e-8 M", "result": 4},
      {"measurement": "FP signal", "setting": "[2]; compound 1.2207e-7 M", "result": 4},
      {"measurement": "FP signal", "setting": "[2]; compound 2.44141e-7 M", "result": 5},
      {"measurement": "FP signal", "setting": "[2]; compound 4.88281e-7 M", "result": 6},
      {"measurement": "FP signal", "setting": "[2]; compound 9.76563e-7 M", "result": 6},
      {"measurement": "FP signal", "setting": "[2]; compound 1.95313e-6 M", "result": 5},
      {"measurement": "FP signal", "setting": "[2]; compound 3.90625e-6 M", "result": 8},
      {"measurement": "FP signal", "setting": "[2]; compound 7.8125e-6 M", "result": 9},
      {"measurement": "FP signal", "setting": "[2]; compound 1.5625e-5 M", "result": 16},
      {"measurement": "FP signal", "setting": "[2]; compound 3.125e-5 M", "result": 30},
      {"measurement": "FP signal", "setting": "[2]; compound 6.25e-5 M", "result": 55},
      {"measurement": "FP signal", "setting": "[2]; compound 0.000125 M", "result": 97},
      {"measurement": "FP signal", "setting": "[2]; compound 0.00025 M", "result": 149},
      {"measurement": "FP signal", "setting": "[2]; compound 0.0005 M", "result": 194},
      {"measurement": "FP signal", "setting": "[2]; compound 0.001 M", "result": 224}
    ]},
    {"smiles": "NCCCC1NCc2ccccc2Sc2ccccc2CNC(=O)C(Cc2c[nH]c3ccccc23)NC(=O)C(Cc2ccccc2)NC1=O", "note": "(stereo not drawn) [CY007345]", "values": [
      {"measurement": "FP signal", "setting": "[1]; compound 476.8 pM", "result": 5},
      {"measurement": "FP signal", "setting": "[1]; compound 953.7 pM", "result": 5},
      {"measurement": "FP signal", "setting": "[1]; compound 1.90735e-9 M", "result": 4},
      {"measurement": "FP signal", "setting": "[1]; compound 3.8147e-9 M", "result": 7},
      {"measurement": "FP signal", "setting": "[1]; compound 7.6294e-9 M", "result": 5},
      {"measurement": "FP signal", "setting": "[1]; compound 1.52588e-8 M", "result": 4},
      {"measurement": "FP signal", "setting": "[1]; compound 3.05176e-8 M", "result": 4},
      {"measurement": "FP signal", "setting": "[1]; compound 6.10352e-8 M", "result": 7},
      {"measurement": "FP signal", "setting": "[1]; compound 1.2207e-7 M", "result": 6},
      {"measurement": "FP signal", "setting": "[1]; compound 2.44141e-7 M", "result": 5},
      {"measurement": "FP signal", "setting": "[1]; compound 4.88281e-7 M", "result": 6},
      {"measurement": "FP signal", "setting": "[1]; compound 9.76563e-7 M", "result": 7},
      {"measurement": "FP signal", "setting": "[1]; compound 1.95313e-6 M", "result": 8},
      {"measurement": "FP signal", "setting": "[1]; compound 3.90625e-6 M", "result": 14},
      {"measurement": "FP signal", "setting": "[1]; compound 7.8125e-6 M", "result": 28},
      {"measurement": "FP signal", "setting": "[1]; compound 1.5625e-5 M", "result": 52},
      {"measurement": "FP signal", "setting": "[1]; compound 3.125e-5 M", "result": 90},
      {"measurement": "FP signal", "setting": "[1]; compound 6.25e-5 M", "result": 137},
      {"measurement": "FP signal", "setting": "[1]; compound 0.000125 M", "result": 191},
      {"measurement": "FP signal", "setting": "[1]; compound 0.00025 M", "result": 224},
      {"measurement": "FP signal", "setting": "[1]; compound 0.0005 M", "result": 238},
      {"measurement": "FP signal", "setting": "[1]; compound 0.001 M", "result": 248},
      {"measurement": "EC50", "setting": "[2]", "result": "False positive"},
      {"measurement": "FP signal", "setting": "[2]; compound 476.8 pM", "result": 5},
      {"measurement": "FP signal", "setting": "[2]; compound 953.7 pM", "result": 5},
      {"measurement": "FP signal", "setting": "[2]; compound 1.90735e-9 M", "result": 4},
      {"measurement": "FP signal", "setting": "[2]; compound 3.8147e-9 M", "result": 7},
      {"measurement": "FP signal", "setting": "[2]; compound 7.6294e-9 M", "result": 5},
      {"measurement": "FP signal", "setting": "[2]; compound 1.52588e-8 M", "result": 4},
      {"measurement": "FP signal", "setting": "[2]; compound 3.05176e-8 M", "result": 4},
      {"measurement": "FP signal", "setting": "[2]; compound 6.10352e-8 M", "result": 7},
      {"measurement": "FP signal", "setting": "[2]; compound 1.2207e-7 M", "result": 6},
      {"measurement": "FP signal", "setting": "[2]; compound 2.44141e-7 M", "result": 5},
      {"measurement": "FP signal", "setting": "[2]; compound 4.88281e-7 M", "result": 6},
      {"measurement": "FP signal", "setting": "[2]; compound 9.76563e-7 M", "result": 7},
      {"measurement": "FP signal", "setting": "[2]; compound 1.95313e-6 M", "result": 8},
      {"measurement": "FP signal", "setting": "[2]; compound 3.90625e-6 M", "result": 14},
      {"measurement": "FP signal", "setting": "[2]; compound 7.8125e-6 M", "result": 28},
      {"measurement": "FP signal", "setting": "[2]; compound 1.5625e-5 M", "result": 52},
      {"measurement": "FP signal", "setting": "[2]; compound 3.125e-5 M", "result": 90},
      {"measurement": "FP signal", "setting": "[2]; compound 6.25e-5 M", "result": 137},
      {"measurement": "FP signal", "setting": "[2]; compound 0.000125 M", "result": 191},
      {"measurement": "FP signal", "setting": "[2]; compound 0.00025 M", "result": 224},
      {"measurement": "FP signal", "setting": "[2]; compound 0.0005 M", "result": 238},
      {"measurement": "FP signal", "setting": "[2]; compound 0.001 M", "result": 248}
    ]}
  ]
}
